Laboratory results taken from ChEMBL document CHEMBL5120784, “Discovery of a novel 2-aminopyrazine-3-carboxamide as a potent and selective inhibitor of Activin Receptor-Like Kinase-2 (ALK2) for the treatment of fibrodysplasia ossificans progressiva” (Bioorg Med Chem Lett, 2022).
Values after ≈ are worked out from the molar mass of the structure shown.

Experiments:
[1] = Microsomal stability in mouse liver microsomes assessed as clearance; type: ADME, Microsome
[2] = Aqueous solubility of compound at pH 6.8; type: physicochemical
[3] = Permeability of compound by PAMPA assay; type: ADME; design: reference not given here
[4] = molecular target: T1, Bone morphogenetic protein receptor type-1B (Homo sapiens, UniProt O00238); assay: Binding affinity to wild type ALK6 (unknown origin) assessed as percent of control at 1 uM by Kinomescan method relative to control
T1 sequence (O00238 whole entry): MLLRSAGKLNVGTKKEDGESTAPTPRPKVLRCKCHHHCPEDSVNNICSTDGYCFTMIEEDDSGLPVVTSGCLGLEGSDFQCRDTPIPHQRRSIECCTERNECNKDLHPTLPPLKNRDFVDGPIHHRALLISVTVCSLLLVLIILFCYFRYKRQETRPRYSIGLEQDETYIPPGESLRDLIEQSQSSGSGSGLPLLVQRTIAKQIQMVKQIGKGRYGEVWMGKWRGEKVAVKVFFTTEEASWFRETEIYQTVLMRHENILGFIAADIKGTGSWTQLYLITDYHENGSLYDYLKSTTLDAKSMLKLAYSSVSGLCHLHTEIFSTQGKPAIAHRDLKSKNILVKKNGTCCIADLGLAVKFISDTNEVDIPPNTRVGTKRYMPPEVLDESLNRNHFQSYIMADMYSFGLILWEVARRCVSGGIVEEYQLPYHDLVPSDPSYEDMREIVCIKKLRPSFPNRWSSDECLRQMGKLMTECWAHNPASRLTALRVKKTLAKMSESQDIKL

[5] = molecular target: T2, Bone morphogenetic protein receptor type-1A (Homo sapiens, UniProt P36894); assay: Binding affinity to wild type ALK3 (unknown origin) assessed as percent of control at 1 uM by Kinomescan method relative to control
T2 sequence (P36894 whole entry): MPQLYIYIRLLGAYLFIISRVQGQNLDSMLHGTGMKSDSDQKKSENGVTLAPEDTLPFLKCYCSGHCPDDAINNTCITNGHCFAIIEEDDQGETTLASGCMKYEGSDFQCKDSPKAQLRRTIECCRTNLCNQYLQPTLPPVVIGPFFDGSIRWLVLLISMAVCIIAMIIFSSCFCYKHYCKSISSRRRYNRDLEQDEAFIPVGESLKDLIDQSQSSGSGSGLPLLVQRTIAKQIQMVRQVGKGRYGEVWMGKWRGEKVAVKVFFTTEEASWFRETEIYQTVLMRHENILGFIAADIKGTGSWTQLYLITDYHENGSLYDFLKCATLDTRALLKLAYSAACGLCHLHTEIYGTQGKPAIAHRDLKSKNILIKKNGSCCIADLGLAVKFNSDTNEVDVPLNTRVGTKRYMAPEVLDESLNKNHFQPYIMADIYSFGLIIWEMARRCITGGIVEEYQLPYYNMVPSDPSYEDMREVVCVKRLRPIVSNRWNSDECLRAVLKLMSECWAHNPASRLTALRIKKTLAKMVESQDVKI

Homo sapiens [6] = species on record: Homo sapiens; assay: Selectivity ratio of IC50 for inhibition of wild type ALK1 (unknown origin) to IC50 for inhibition of ALK2 R206H mutant (unknown origin)
Homo sapiens [7] = species on record: Homo sapiens; assay: Selectivity ratio of IC50 for inhibition of wild type ALK6 (unknown origin) to IC50 for inhibition of ALK2 R206H mutant (unknown origin)
[8] = molecular target: Non-receptor tyrosine-protein kinase TYK2 (Homo sapiens) (UniProt P29597); assay: Binding affinity to wild type TYK2 JH2 domain (unknown origin) assessed as percent of control at 1 uM by Kinomescan method relative to control
Sequence of Non-receptor tyrosine-protein kinase TYK2 (Homo sapiens) (P29597 whole entry, the tested form may be a part): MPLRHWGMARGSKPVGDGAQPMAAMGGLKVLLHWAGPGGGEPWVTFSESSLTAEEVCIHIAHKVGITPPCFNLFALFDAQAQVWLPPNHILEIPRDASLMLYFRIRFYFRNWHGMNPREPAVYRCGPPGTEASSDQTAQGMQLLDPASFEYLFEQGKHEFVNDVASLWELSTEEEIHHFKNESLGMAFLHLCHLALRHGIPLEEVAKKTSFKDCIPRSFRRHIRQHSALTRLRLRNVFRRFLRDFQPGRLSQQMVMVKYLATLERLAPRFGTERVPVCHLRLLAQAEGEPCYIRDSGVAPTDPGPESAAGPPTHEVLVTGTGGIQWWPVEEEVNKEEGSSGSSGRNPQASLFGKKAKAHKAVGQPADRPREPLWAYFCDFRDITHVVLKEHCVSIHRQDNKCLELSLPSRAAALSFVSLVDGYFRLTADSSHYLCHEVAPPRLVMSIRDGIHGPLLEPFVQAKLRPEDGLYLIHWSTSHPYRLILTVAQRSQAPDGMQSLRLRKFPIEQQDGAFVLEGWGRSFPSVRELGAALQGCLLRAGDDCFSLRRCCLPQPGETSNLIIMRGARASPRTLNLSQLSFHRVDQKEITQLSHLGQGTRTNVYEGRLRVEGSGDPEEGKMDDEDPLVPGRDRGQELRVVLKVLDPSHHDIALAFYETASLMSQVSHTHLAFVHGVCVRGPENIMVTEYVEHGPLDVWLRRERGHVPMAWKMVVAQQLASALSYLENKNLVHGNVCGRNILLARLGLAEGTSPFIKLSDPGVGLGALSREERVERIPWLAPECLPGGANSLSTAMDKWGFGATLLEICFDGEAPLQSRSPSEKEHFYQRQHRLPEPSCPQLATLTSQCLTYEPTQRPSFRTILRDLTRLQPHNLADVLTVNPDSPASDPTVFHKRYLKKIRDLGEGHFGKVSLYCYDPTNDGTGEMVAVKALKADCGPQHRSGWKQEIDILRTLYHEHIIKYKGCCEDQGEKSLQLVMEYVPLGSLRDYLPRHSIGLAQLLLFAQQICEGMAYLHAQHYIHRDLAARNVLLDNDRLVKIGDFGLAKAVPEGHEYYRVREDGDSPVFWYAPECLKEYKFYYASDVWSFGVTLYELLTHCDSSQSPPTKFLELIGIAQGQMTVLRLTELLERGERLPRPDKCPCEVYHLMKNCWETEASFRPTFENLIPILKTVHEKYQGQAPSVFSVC

Homo sapiens [9] = species on record: Homo sapiens; assay: Selectivity ratio of IC50 for inhibition of wild type ALK2 (unknown origin) to IC50 for inhibition of ALK2 R206H mutant (unknown origin)
Activin receptor type-1 [10] = molecular target: T3, Activin receptor type-1 (Homo sapiens, UniProt Q04771, R206H); assay: Inhibition of ALK2 R206H mutant (unknown origin) assessed as enzymatic activity by microfluidic mobility shift assay
T3 sequence (Q04771 21-509 R206H limits assumed): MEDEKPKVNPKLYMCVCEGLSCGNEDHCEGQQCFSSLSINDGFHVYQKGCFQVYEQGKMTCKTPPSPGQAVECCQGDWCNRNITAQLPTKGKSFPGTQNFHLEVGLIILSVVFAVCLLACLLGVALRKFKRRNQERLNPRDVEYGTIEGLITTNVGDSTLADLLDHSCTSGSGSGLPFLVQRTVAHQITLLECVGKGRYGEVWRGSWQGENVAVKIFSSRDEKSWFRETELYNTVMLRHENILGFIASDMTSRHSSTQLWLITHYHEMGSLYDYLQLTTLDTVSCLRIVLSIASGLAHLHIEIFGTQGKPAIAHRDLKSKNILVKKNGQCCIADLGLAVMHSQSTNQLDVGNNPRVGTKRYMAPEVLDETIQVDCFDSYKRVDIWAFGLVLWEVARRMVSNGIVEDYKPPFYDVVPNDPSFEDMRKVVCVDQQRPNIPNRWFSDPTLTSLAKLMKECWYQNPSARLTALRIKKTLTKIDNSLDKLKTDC

Homo sapiens [11] = species on record: Homo sapiens; assay: Selectivity ratio of IC50 for inhibition of wild type ALK3 (unknown origin) to IC50 for inhibition of ALK2 R206H mutant (unknown origin)
[12] = molecular target: T2, Bone morphogenetic protein receptor type-1A; assay: Inhibition of wild type ALK3 (unknown origin) assessed as enzymatic activity using chemiluminescent substrate by ADP-Glo assay
[13] = molecular target: Dual specificity protein kinase CLK2 (Homo sapiens) (UniProt P49760); assay: Binding affinity to wild type CLK2 (unknown origin) assessed as percent of control at 1 uM by Kinomescan method relative to control
Sequence of Dual specificity protein kinase CLK2 (Homo sapiens) (P49760 whole entry, looked up): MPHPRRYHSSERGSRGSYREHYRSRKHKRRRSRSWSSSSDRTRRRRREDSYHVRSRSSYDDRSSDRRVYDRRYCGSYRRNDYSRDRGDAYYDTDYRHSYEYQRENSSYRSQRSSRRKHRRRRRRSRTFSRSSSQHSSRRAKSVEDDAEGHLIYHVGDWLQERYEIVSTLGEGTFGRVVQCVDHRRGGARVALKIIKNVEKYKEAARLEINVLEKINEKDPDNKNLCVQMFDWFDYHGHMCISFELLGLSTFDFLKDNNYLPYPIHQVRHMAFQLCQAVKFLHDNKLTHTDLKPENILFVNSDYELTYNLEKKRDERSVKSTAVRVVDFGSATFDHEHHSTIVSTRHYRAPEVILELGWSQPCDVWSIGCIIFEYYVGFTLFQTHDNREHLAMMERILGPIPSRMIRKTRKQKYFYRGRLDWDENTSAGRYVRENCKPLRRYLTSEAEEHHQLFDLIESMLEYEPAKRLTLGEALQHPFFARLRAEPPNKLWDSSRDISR

[14] = molecular target: Serine/threonine-protein kinase 38 (Homo sapiens) (UniProt Q15208); assay: Binding affinity to wild type STK38 (unknown origin) assessed as percent of control at 1 uM by Kinomescan method relative to control
Sequence of Serine/threonine-protein kinase 38 (Homo sapiens) (Q15208 2-465 limits assumed): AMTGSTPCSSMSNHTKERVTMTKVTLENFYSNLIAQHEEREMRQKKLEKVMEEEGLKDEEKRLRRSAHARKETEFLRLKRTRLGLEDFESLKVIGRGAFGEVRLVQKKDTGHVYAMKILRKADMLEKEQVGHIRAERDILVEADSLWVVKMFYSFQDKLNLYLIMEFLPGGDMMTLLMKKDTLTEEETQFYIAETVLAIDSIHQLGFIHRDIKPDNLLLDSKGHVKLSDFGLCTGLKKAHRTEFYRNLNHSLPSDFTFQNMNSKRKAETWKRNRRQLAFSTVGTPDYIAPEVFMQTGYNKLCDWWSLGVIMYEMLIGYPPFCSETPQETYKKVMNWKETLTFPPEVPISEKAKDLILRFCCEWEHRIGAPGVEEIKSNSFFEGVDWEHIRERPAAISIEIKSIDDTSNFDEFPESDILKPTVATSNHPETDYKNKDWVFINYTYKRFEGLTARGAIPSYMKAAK

[15] = molecular target: T4, Activin receptor type-1-like (Homo sapiens, UniProt P37023); assay: Inhibition of wild type ALK1 (unknown origin) assessed as enzymatic activity by microfluidic mobility shift assay
T4 sequence (P37023 whole entry): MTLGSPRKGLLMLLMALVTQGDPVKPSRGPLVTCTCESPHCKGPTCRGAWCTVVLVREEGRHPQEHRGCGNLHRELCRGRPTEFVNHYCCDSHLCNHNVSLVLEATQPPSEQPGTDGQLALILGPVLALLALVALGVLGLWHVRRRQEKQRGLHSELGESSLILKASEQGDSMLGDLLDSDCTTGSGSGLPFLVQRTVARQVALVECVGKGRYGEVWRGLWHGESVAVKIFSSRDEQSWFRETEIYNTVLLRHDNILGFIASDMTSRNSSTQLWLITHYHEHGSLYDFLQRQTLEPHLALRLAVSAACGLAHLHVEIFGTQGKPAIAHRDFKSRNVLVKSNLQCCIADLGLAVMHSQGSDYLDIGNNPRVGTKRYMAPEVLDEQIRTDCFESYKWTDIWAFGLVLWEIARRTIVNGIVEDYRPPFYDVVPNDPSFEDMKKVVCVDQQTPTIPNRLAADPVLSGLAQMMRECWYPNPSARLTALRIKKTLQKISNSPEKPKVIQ

Activin receptor type-1 [16] = molecular target: T5, Activin receptor type-1 (Homo sapiens, UniProt Q04771); assay: Inhibition of wild type ALK2 (unknown origin) assessed as enzymatic activity by microfluidic mobility shift assay
T5 sequence (Q04771 whole entry): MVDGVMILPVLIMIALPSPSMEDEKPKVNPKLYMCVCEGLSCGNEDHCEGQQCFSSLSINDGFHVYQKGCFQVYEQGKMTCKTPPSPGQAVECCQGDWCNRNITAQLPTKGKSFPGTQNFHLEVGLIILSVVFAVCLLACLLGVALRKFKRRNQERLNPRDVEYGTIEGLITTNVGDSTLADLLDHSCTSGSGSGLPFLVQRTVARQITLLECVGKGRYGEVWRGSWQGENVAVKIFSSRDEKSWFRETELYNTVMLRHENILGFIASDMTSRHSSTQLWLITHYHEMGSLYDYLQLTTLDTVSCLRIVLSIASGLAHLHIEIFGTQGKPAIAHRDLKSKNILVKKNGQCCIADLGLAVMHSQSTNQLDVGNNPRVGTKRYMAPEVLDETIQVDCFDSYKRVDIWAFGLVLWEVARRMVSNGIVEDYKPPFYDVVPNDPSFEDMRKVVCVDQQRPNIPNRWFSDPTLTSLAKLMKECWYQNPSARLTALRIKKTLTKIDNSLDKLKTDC

[17] = molecular target: Interferon-induced, double-stranded RNA-activated protein kinase (Homo sapiens) (UniProt P19525); assay: Binding affinity to wild type EIF2AK2 (unknown origin) assessed as percent of control at 1 uM by Kinomescan method relative to control
Sequence of Interferon-induced, double-stranded RNA-activated protein kinase (Homo sapiens) (P19525 whole entry): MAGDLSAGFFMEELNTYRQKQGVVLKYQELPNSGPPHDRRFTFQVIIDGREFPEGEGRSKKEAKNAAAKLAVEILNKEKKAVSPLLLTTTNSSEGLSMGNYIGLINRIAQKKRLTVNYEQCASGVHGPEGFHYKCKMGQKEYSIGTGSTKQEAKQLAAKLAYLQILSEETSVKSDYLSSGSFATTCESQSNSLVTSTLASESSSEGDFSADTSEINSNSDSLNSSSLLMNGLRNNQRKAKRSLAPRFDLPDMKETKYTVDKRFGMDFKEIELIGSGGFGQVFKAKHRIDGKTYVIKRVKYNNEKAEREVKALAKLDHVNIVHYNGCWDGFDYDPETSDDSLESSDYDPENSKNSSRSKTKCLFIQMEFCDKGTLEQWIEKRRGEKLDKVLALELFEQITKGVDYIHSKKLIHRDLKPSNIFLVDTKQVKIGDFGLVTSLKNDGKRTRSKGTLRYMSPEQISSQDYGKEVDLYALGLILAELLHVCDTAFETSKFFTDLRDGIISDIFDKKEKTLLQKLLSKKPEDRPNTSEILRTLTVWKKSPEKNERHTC

[18] = molecular target: T4, Activin receptor type-1-like; assay: Binding affinity to wild type ALK1 (unknown origin) assessed as percent of control at 1 uM by Kinomescan method relative to control
[19] = molecular target: T1, Bone morphogenetic protein receptor type-1B; assay: Inhibition of wild type ALK6 (unknown origin) assessed as enzymatic activity using chemiluminescent substrate by ADP-Glo assay
Homo sapiens [20] = species on record: Homo sapiens; assay: Selectivity ratio of IC50 for inhibition of wild type ALK5 (unknown origin) to IC50 for Inhibition of ALK2 R206H mutant (unknown origin)
Activin receptor type-1 [21] = molecular target: T3, Activin receptor type-1; assay: Inhibition of ALK2 R206H mutant (unknown origin) transfected in BMP6-stimulated human HEK293 cells by luciferase reporter gene assay; type: cell-based
[22] = molecular target: T6, Activin receptor type-1 (Homo sapiens) (UniProt Q04771); assay: Binding affinity to wild type ALK2 (unknown origin) assessed as percent of control at 1 uM by Kinomescan method relative to control
T6 sequence (whole entry): T5 sequence (Q04771 whole entry)

[23] = molecular target: Dual specificity protein kinase CLK1 (Homo sapiens) (UniProt P49759); assay: Binding affinity to wild type CLK1 (unknown origin) assessed as percent of control at 1 uM by Kinomescan method relative to control
TGF-beta receptor type-1 = molecular target: T7, TGF-beta receptor type-1 (Homo sapiens, UniProt P36897); assay: Inhibition of wild type ALK5 (unknown origin) assessed as enzymatic activity by microfluidic mobility shift assay
T7 sequence (P36897 whole entry): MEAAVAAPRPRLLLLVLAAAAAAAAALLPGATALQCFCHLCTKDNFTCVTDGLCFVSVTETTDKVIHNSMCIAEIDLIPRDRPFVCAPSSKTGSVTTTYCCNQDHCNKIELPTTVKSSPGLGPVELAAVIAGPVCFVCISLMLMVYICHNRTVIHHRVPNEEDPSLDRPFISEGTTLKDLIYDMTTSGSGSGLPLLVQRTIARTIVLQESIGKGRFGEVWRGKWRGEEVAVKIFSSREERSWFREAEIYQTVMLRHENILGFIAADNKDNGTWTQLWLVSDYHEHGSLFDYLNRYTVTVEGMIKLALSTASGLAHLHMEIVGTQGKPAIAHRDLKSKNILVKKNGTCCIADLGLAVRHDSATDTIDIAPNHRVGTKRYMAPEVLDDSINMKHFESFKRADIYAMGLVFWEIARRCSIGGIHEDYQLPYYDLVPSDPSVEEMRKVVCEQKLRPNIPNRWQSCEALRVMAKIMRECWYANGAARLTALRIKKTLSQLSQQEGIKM

SMILES: CN(C)Cc1ccc(-c2cnc(N)c(C(=O)NC3CCCC3O)n2)cc1 (centres undefined)
- CLH [1]: 179 µL/min/mg
- solubility [2]: 940 µM (≈ 334 µg/mL)
- permeability [3]: 99%

SMILES: Nc1ncc(-c2ccc(CN3CCC(N4CCOCC4)CC3)cc2Cl)nc1C(=O)N[C@H]1CC[C@H](O)CC1
- CLH [1]: 74 µL/min/mg
- solubility [2]: > 1000 µM
- permeability [3]: 96%

SMILES: Nc1ncc(-c2ccc(CN3CCC(N4CCCC4)CC3)cc2)nc1C(=O)N[C@H]1CC[C@H](O)CC1 (stereo in doubt; 19)
- CLH [1]: 23 µL/min/mg
- permeability [3]: 62%

SMILES: C[C@@](O)(CNC(=O)c1nc(-c2ccc(CN3CCOCC3)cc2)cnc1N)C(F)(F)F
- CLH [1]: 86 µL/min/mg
- solubility [2]: 190 µM (≈ 83.5 µg/mL)
- permeability [3]: 99%

SMILES: CCN(CC)Cc1ccc(-c2cnc(N)c(C(=O)NC[C@@](C)(O)C(F)(F)F)n2)cc1
- CLH [1]: 58 µL/min/mg
- solubility [2]: > 1000 µM
- permeability [3]: 99%

SMILES: CN(C)Cc1ccc(-c2cnc(N)c(C(=O)NC3CCC(O)CC3)n2)cc1 (centres undefined)
- CLH [1]: 64 µL/min/mg
- solubility [2]: 850 µM (≈ 314 µg/mL)
- permeability [3]: 94%

SMILES: CN(C)Cc1ccc(-c2cnc(N)c(C(=O)NC3CCCCC3)n2)cc1
- CLH [1]: 839 µL/min/mg
- solubility [2]: 190 µM (≈ 67.2 µg/mL)
- permeability [3]: 100%

SMILES: C[C@@](O)(CNC(=O)c1nc(-c2ccc(CN3CCNCC3)cc2)cnc1N)C(F)(F)F
- CLH [1]: < 10 µL/min/mg
- solubility [2]: > 1000 µM
- permeability [3]: 42%

SMILES: CCN(CC)C1CCN(Cc2ccc(-c3cnc(N)c(C(=O)N[C@H]4CC[C@H](O)CC4)n3)cc2)CC1
- CLH [1]: < 10 µL/min/mg
- solubility [2]: > 1000 µM
- permeability [3]: 61%

SMILES: CC(O)CNC(=O)c1nc(-c2ccc(CN(C)C)cc2)cnc1N (racemic)
- CLH [1]: 103 µL/min/mg
- solubility [2]: > 1000 µM
- permeability [3]: 77%

SMILES: Nc1ncc(-c2ccc(CN3CCC(N4CCCC4)CC3)cc2)nc1C(=O)N[C@H]1CC[C@H](O)CC1 (stereo in doubt; 18)
- CLH [1]: < 10 µL/min/mg
- solubility [2]: > 1000 µM
- permeability [3]: 56%

SMILES: CN(C)Cc1ccc(-c2cnc(N)c(C(=O)NCC(O)C(F)(F)F)n2)cc1 (centres undefined)
- CLH [1]: 159 µL/min/mg
- solubility [2]: 880 µM (≈ 337 µg/mL)
- permeability [3]: 93%

SMILES: C[C@]1(O)CC[C@H](NC(=O)c2nc(-c3ccc(CN4CCC(N5CCOCC5)CC4)cc3Cl)cnc2N)CC1
- CLH [1]: 197 µL/min/mg

SMILES: CC(C)NC(=O)c1nc(-c2ccc(CN(C)C)cc2)cnc1N
- CLH [1]: 634 µL/min/mg
- solubility [2]: > 1000 µM
- permeability [3]: 100%

SMILES: Nc1ncc(-c2ccc(CN3CCC(N4CCOCC4)CC3)cc2)nc1C(=O)N[C@H]1CC[C@H](O)CC1
- CLH [1]: 19 µL/min/mg
- solubility [2]: > 1000 µM
- permeability [3]: 65%

SMILES: CC(C)N1CCN(Cc2ccc(-c3cnc(N)c(C(=O)NC[C@@](C)(O)C(F)(F)F)n3)cc2)CC1
- CLH [1]: 28 µL/min/mg
- solubility [2]: > 1000 µM
- permeability [3]: 99%

SMILES: CCNC(=O)c1nc(-c2ccc(CN(C)C)cc2)cnc1N
- CLH [1]: 373 µL/min/mg
- solubility [2]: > 1000 µM
- permeability [3]: 99%

SMILES: CC(C)N1CCN(Cc2ccc(-c3cnc(N)c(C(=O)N[C@H]4CC[C@H](O)CC4)n3)cc2)CC1
- CLH [1]: 12 µL/min/mg
- solubility [2]: 830 µM (≈ 376 µg/mL)
- permeability [3]: 85%

SMILES: CN(C)Cc1ccc(-c2cnc(N)c(C(=O)NC[C@@](C)(O)C(F)(F)F)n2)cc1
- CLH [1]: 126 µL/min/mg
- solubility [2]: 510 µM (≈ 203 µg/mL)
- permeability [3]: 99%

SMILES: Nc1ncc(-c2ccc(CN3CCC(N4CCOCC4)CC3)cc2Cl)nc1C(=O)NC12CCC(O)(CC1)CC2
- Activity [4]: 0.7%
- CLH [1]: 55 µL/min/mg
- Activity [5]: 11%
- Ratio IC50 (Homo sapiens [6]): 15
- Ratio IC50 (Homo sapiens [7]): 263
- Activity [8]: 24%
- Ratio IC50 (Homo sapiens [9]): 1.5
- IC50 (Activin receptor type-1 [10]): 8 nM
- Ratio IC50 (Homo sapiens [11]): 35
- IC50 [12]: 280 nM
- Activity [13]: 27%
- Activity [14]: 14%
- IC50 [15]: 120 nM
- IC50 (Activin receptor type-1 [16]): 12 nM
- Activity [17]: 14%
- Activity [18]: 8.5%
- IC50 [19]: 2100 nM
- solubility [2]: 420 µM (≈ 233 µg/mL)
- Ratio IC50 (Homo sapiens [20]): 275
- IC50 (Activin receptor type-1 [21]): 44 nM
- Activity [22]: 2%
- permeability [3]: 99%
- Activity [23]: 29%
- IC50 (TGF-beta receptor type-1): 2200 nM

SMILES: C[C@@](O)(CNC(=O)c1nc(-c2ccc(CN3CCCC3)cc2)cnc1N)C(F)(F)F
- CLH [1]: 41 µL/min/mg
- solubility [2]: > 1000 µM
- permeability [3]: 99%

SMILES: C[C@@](O)(CNC(=O)c1nc(-c2ccc(CN3CCS(=O)(=O)CC3)cc2)cnc1N)C(F)(F)F
- CLH [1]: 20 µL/min/mg
- solubility [2]: 4 µM (≈ 1.95 µg/mL)
- permeability [3]: 45%
